Results from patent US8492589B2, “Alkynyl phenyl derivative compounds for treating ophthalmic diseases and disorders” (Acucela Inc., priority 2007, dated 2013).
Marks after values point to notes of the source that are not given here.

How the values were obtained:
[1] = biological target: T1, recombinant human RPE65 and LRAT (Homo sapiens, UniProt Q16518); assay: In vitro isomerase inhibition assay, recombinant human enzyme system (HEK293 homogenate); assay type: biochemical
T1 construct: expressed in transfected cells; host or cells: HEK293 cell clone (homogenate); CRALBP was made in E. coli TOP10
T1 sequence (Q16518 2-533 limits assumed): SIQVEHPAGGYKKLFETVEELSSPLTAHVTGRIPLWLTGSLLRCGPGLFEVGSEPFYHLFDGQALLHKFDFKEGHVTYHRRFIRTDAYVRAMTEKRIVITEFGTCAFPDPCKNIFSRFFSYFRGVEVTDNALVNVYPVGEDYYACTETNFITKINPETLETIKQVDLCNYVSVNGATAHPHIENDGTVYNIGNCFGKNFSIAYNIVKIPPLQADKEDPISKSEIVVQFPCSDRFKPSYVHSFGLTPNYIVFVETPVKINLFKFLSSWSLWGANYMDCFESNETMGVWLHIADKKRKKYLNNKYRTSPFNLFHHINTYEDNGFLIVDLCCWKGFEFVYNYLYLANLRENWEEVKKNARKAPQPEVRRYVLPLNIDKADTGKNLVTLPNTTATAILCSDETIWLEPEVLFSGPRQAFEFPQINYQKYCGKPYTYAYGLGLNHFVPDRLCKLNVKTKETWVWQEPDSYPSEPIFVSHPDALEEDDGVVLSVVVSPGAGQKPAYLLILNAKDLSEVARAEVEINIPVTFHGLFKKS
Method: The concentration dependent effect of the compounds disclosed herein on the retinol isomerization reaction can also be evaluated with a recombinant human enzyme system. […] A homogenate of HEK293 cell clone expressing recombinant human RPE65 and LRAT were the source of the visual enzymes, and exogenous all-trans-retinol (about 20 μM) was used as the substrate. Recombinant human CRALBP (about 80 ug/mL) was added to enhance the formation of 11-cis-retinal. The 200 μL Bis-Tris Phosphate buffer (10 mM, pH 7.2) based reaction mixture also contains 0.5% BSA, and 1 mM NaPPi. In this assay, the reaction was carried out at 37° C. in duplicates for one hour and was terminated by addition of 300 μL methanol. The amount of reaction product, 11-cis-retinol, was measured by HPLC analysis following Heptane extraction of the reaction mixture. […] The ability of the numerous compounds disclosed herein to inhibit isomerization reaction is quantified and the respective IC50 value is determined. The tables below summarises the IC50 values of various compounds of the present invention determined by either of the above two methods. FIG. 1 is a representative figure of the IC50 determination of the compound of Example 2.

[2] = test system: ERG response in the eyes of mice; assay: Electroretinographic (ERG) study, C57BL/6 mice; assay type: in vivo; settings: for b-wave ampl. 0.01 cd.s/m^2: dark-adapted ERG, in µV (unit assumed); for Vmax average: light-adapted ERG
Method: This example describes determining the effect of an alkyne derivative compound that is a visual cycle modulator on the magnitude of the ERG response in the eyes of mice after oral dosing of the animals with the compound. […]
Three groups of nine-week old mice (19-25 grams), both genders (strain C5 7BL/6, Charles River Laboratories, Wilmington, Mass.) are housed at room temperature, 72±4° F., and relative humidity of approximately 25%. Animals are housed in a 12-hour light/dark cycle environment, have free access to feed and drinking water and are checked for general health and well-being prior to use and during the study. Body weights are determined for a representative sample of mice prior to initiation of dosing. The average weight determined from this sampling is used to establish the dose for all mice in the study.
(§1) Each test compound is dissolved in the control solvent (EtOH), and diluted 1:10 ([…]) in corn oil (Crisco Pure Corn Oil, J.M. Smucker Company, Orrville, Ohio) to the desired dose (mg/kg) in the desired volume (˜0.1 mL/animal). The control vehicle is ethanol: corn oil (1:10 (0.9 ml/9 ml)). The treatment designations and animal assignments are described in Table 16.
(§2) Animals are dosed once orally by gavage, with the assigned vehicle control or test compounds during the light cycle (between 30 min and 3 hours 30 min after the beginning of the light cycle).
(§3) ERG recordings are made on dark-adapted and, subsequently (during the course of the same experiment), on light-adapted states. For the dark-adapted response, animals are housed in a dark-adapted environment for at least 1 hour prior to the recording, commencing at least 30 minutes after the start of the light cycle.
(§4) Pupils were dilated by placing a 5 microliter drop of mydriatic solution (tropicamide 0.5%) in the recorded eye. A mouse corneal monopolar contact lens electrode (Mayo Corporation, Inazawa, Aichi, Japan) was placed on the cornea, and a subcutaneous reference low profile needle 12 mm electrode (Grass Telefactor, W Warwick, R.I.) was placed medial from the eye. A ground needle electrode was placed in the tail. Data collection was obtained using an Espion E^2 (Diagnosys LLC, Littleton, Mass.) ERG recording system with Color Dome Ganzfeld stimulator. Full dark-adapted intensity-response function was determined following a brief white flash stimuli of 14 intensities ranging from 0.0001 cd·s/m^2 to 333 cd·s/m^2. Subsequently, full light-adapted intensity-response function was determined following a brief white flash stimuli of 9 intensities ranging from 0.33 cd·s/m^2 to 333 cd·s/m^2. Analysis of the obtained responses was done off-line. Intensity-response function determination was done by fitting a sigmoid function to the data (Naka K I, Rushton Wash., 1966; Naka K I, Rushton Wash., 1967).

[3] = test system: ERG response in the eyes of mice; assay: Electroretinographic (ERG) study, BALB/c mice; assay type: in vivo; set-up: Vmax average: unit not given beside the values; settings: for b-wave ampl. 0.01 cd.s/m^2: dark-adapted ERG, in µV (unit assumed); for Vmax average: light-adapted ERG
Method: as §1, §2, §3, §4
A related example describes determining the effect of an alkyne derivative compound that is a visual cycle modulator on the level of ERG response in the eyes of mice after oral dosing of the animals with the compound. The experimental procedure is the same as that described in the previous example with the following exceptions: 12 to 16-week old BALB/c mice were used (body weights 16-25 g).

[4] = 4 h, dose 1 (mg/kg oral), aggregated average

CCCC(O)(C#Cc1cccc(CCCN)c1)CCC [Example 2, 4-((3-(3-Aminopropyl)phenyl)ethynyl)heptan-4-ol]
inhibition of isomerase activity (figure legend) [1]: concentration-dependent inhibition | Change vs. control (%) ([2]; dark-adapted ERG b-wave, 4 h, dose 0.5 (mg/kg oral)): −50.65% | Change vs. control (%) ([2]; dark-adapted ERG b-wave, 4 h, dose 1 (mg/kg oral)): −94.04% | Change vs. control (%) ([2]; dark-adapted ERG b-wave, 25 h, dose 1 (mg/kg oral), compared to 4 hours vehicle): −19.93%** | b-wave ampl. 0.01 cd.s/m^2 ([2]; 4 h, dose 0.5 (mg/kg oral)): 265 | b-wave ampl. 0.01 cd.s/m^2 [2, 4]: 32* | b-wave ampl. 0.01 cd.s/m^2 ([2]; 25 h, dose 1 (mg/kg oral)): 430 | Change vs. control (%) ([2]; light-adapted ERG Vmax, 4 h, dose 0.5 (mg/kg oral)): 36.49% | Change vs. control (%) ([2]; light-adapted ERG Vmax, 4 h, dose 1 (mg/kg oral)): 77.03% | Change vs. control (%) ([2]; light-adapted ERG Vmax, 25 h, dose 1 (mg/kg oral), compared to 4 hours vehicle): 91.89%** | Vmax average ([2]; 4 h, dose 0.5 (mg/kg oral)): 202 | Vmax average [2, 4]: 262* | Vmax average ([2]; 25 h, dose 1 (mg/kg oral)): 284

CCCC(O)(C#Cc1cccc(C(O)CCN)c1)CCC (centres unmarked) [Example 19, 4-((3-(3-Amino-1-hydroxypropyl)phenyl)ethynyl)heptan-4-ol]
Change vs. control (%) ([3]; dark-adapted ERG b-wave, 4 h, dose 0.2, BALB/c mice): −52.89% | Change vs. control (%) ([3]; dark-adapted ERG b-wave, 4 h, dose 0.3, BALB/c mice): −80.77% | Change vs. control (%) ([3]; dark-adapted ERG b-wave, 4 h, dose 0.6, BALB/c mice): −95.92% | Change vs. control (%) ([3]; dark-adapted ERG b-wave, 25 h, dose 0.3, BALB/c mice, compared to 4 hours vehicle): −55.75%** | b-wave ampl. 0.01 cd.s/m^2 ([3]; 4 h, dose 0.2, BALB/c mice): 263 | b-wave ampl. 0.01 cd.s/m^2 ([3]; 4 h, dose 0.3, BALB/c mice, aggregated average): 107* | b-wave ampl. 0.01 cd.s/m^2 ([3]; 4 h, dose 0.6, BALB/c mice): 23 | b-wave ampl. 0.01 cd.s/m^2 ([3]; 25 h, dose 0.3, BALB/c mice): 247 | Change vs. control (%) ([3]; light-adapted ERG Vmax, 4 h, dose 0.2, BALB/c mice): −0.13% | Change vs. control (%) ([3]; light-adapted ERG Vmax, 4 h, dose 0.3, BALB/c mice): 11.33% | Change vs. control (%) ([3]; light-adapted ERG Vmax, 4 h, dose 0.6, BALB/c mice): 6.34% | Change vs. control (%) ([3]; light-adapted ERG Vmax, 25 h, dose 0.3, BALB/c mice): 10.66% | Vmax average ([3]; 4 h, dose 0.2, BALB/c mice): 163 | Vmax average ([3]; 4 h, dose 0.3, BALB/c mice): 181 | Vmax average ([3]; 4 h, dose 0.6, BALB/c mice): 173 | Vmax average ([3]; 25 h, dose 0.3, BALB/c mice): 180
